From EP1435238A1, “Methods for treating apnea and apnea disorders using optically pure R (+) ondansetron” (Sepracor Inc., priority 1999, dated 2000)

Experiment: Electrophysiological effects (EKG, QTc interval, cardiotoxicity) in dogs
Assay type: in vivo, mongrel dogs
Conditions: for prolongation of QTc interval (comparison in words): among the animals tested; for QTc Interval: dogs, rising cumulative dose at 30 minute intervals; for dogs died / survived: during or shortly after the experiment, four dogs per treatment, cumulative doses up to 4.0 mg/kg
[1] = 4.0 mg/kg, N=4 except S(-) ondansetron N=3

Method: An investigation was conducted to determine the effect of racemic ondansetron and the R(+)- and S(-)- enanatiomers of ondansetron in causing cardiac arrhythmias (cardiotoxicity) resulting from a lengthening of the cardiac action potential.
The order of administration was randomized to ensure that each dog received only one treatment.

Row | SMILES | prolongation of QTc interval (comparison in words) | QTc Interval (1.0 mg/kg, N=4) [s] | QTc Interval (2.0 mg/kg, N=4) [s] | QTc Interval [1] [s] | dogs died / survived | cardiotoxicity (comparison in words) (conclusion from QTc and mortality data)
1 | Cc1nccn1CC1CCc2c(c3ccccc3n2C)C1=O (racemic) [R,S-Ondansetron, ondansetron] | most prolonged | 0.41 ± 0.01 | 0.45 ± 0.01 | 0.47 ± 0.01 | survived | –
2 | Cc1nccn1C[C@H]1CCc2c(c3ccccc3n2C)C1=O [R(+)-Ondansetron, R(+) ondansetron] | shortest | 0.39 ± 0.01 | 0.40 ± 0.01 | 0.41 ± 0.02 | survived | less cardiotoxicity than either S(-) ondansetron or racemic ondansetron
3 | Cc1nccn1C[C@@H]1CCc2c(c3ccccc3n2C)C1=O [S(-)-Ondansetron, S(-) ondansetron] | most prolonged | 0.43 ± 0.02 | 0.44 ± 0.04 | 0.44 ± 0.03 | – | –
